Measurements reported in patent publication US20240408215A1, “USE OF DIAZIRINE LINKER FOR DRUG CONJUGATES” (HELMHOLTZ ZENTRUM MUNCHEN - DEUTSCHES FORSCHUNGSZENTRUM FUR …, priority 2021, published 2024).

Assay: Pulsed UV light release of 7-hydroxycoumarin in homogenous media, with dark intervals
Assay type: physicochemical
Conditions: FIG. 7

release of 7-hydroxycoumarin upon UV light irradiation (water/EtOH/DMSO (1.0:1.0:0.1), UV light pulses, not attached to agarose): efficient release
SMILES: [N-]=[N+]=NCCCCCC(=O)OCC1(COc2ccc3ccc(=O)oc3c2)N=N1 [(3-(((2-oxo-2H-chromen-7-yl)oxy)methyl)-3H-diazirin-3-yl)methyl-6-azidohexanoate]
release of 7-hydroxycoumarin in the dark after the light pulse (1-2 minutes in the dark after each pulse): no additional leaking of payload occurs after ending the pulse
